The values that follow come from patent US10358416B2, “Substituted pyrrolidines as G-protein coupled receptor 43 agonists” (Ogeda SA, priority 2009, dated 2019).

Each structure is given as a SMILES string.

The assay relates to ob/ob mice. The assay can be described thus: Oral glucose tolerance test (OGTT) in ob/ob mice. The format is in vivo. To be noted: bi-daily 50 mg/kg during 28 days, AUC from -15 to 120 min. How it is done:
Ob/ob or obese mice are leptin-deficient mice that eat excessively and become profoundly obese, hyperinsulinemic and hyperglycemic. It is an animal model of type II diabetes. Such model can be used for oral glucose tolerance tests (OGTTs). A total of sixteen (16) male ob/ob mice (6 weeks of age) were obtained from Harlan. Upon arrival to the animal unit, mice were housed 4 per cage in rodent cages mounted with feeders containing regular chow. The mice were put in a 12/12h light-dark cycle (light from 0600-1800 h) with controlled temperature conditions (22-24° C.). Fed blood glucose and body-weight was measured on day −2 in the morning between 08:00 AM and 09:00 AM. Animals were randomized into 2 groups according to fed glucose levels (on day −2). […]
Day 1 is the first day of dosing. […] At −15 min, blood glucose was measured (using a glucose analyzer) and animals were dosed with compounds of the invention or vehicle. At time point 0, blood glucose was measured again and glucose was administered by oral gavage (1 g/kg glucose). The blood glucose was then measured at time points 15, 30, 45, 60 and 120 minutes. […] The percentages of AUC inhibition induced by compounds of the invention were calculated as follows: % of AUC inhibition: [1−(AUC compound/AUC vehicle)]*100.

For `COc1ccccc1-c1ccc(C(=O)N2[C@@H](c3ccccc3Cl)CC[C@H]2C(=O)O)cc1` [Compound 1, (2S,5R)-5-(2-chlorophenyl)-1-(2′-methoxy-[1,1′-biphenyl]-4-carbonyl)pyrrolidine-2-carboxylic acid], the “% of AUC inhibition (blood glucose AUC, OGTT)” value is on record as 40%.
